Experimental data published in patent US11998553B2, “Certain (2S)-N-[(1S)-1-cyano-2-phenylethyl]-1,4-oxazepane-2-carboxamides for treating lupus nephritis” (Insmed Incorporated, priority 2018, dated 2024).

Tested on: NZB/WF1 mice
Assay: Accelerated lupus nephritis model in mice (Ad-IFNα5 injection)
Type: in vivo
Description: INS1007 as a potential treatment for LN was assessed. 10-11 week old female New Zealand Black/New Zealand White F1 (NZB/WF1) mice (Jackson Laboratory) were subjected to a single injection of an adenovirus expressing IFNα5 (Ad-IFNα5, BioXcell, cat #BE0241, clone AR1-5A3) to accelerate the clinical manifestations of LN. FIG. 1 provides a schematic overview of the study design.
The duration of the study was 8 weeks from Ad-IFNα5 injection.
Urine and blood collection was carried out at baseline (immediately after Ad-IFNα5 injection), and at weeks 2, 4, 6 and 8. Total protein (by chemstick), albumin (by ELISA) and creatinine (by a colorimetric assay kit) was measured in urine and blood urea nitrogen (BUN) was measured in plasma.
Animals were sacrificed at 8 weeks and the left kidney of each animal was used for histopathology analysis. Pathology scores are summed from individual scores of three aspects: glomerulonephritis, tubular protein and nephropathy and were scored by a Certified Veterinary Pathologist.
The right kidneys of each animal were used for FACS analysis. Right kidneys were digested and subjected to Percoll centrifugation, fixable-viability-dye and surface staining for the following markers: CD45, CD3, CD11b, F4/80, Ly6G and Ly6C. Results of FACS are provided at FIGS. 7-13.

## Cn1c(=O)oc2ccc(-c3ccc(C[C@@H](C#N)NC(=O)[C@@H]4CNCCCO4)cc3)cc21 [INS1007, (2S)—N-{(1S)-1-cyano-2-[4-(3-methyl-2-oxo-2,3-dihydro-1,3-benzoxazol-5-yl)phenyl]ethyl}-1,4-oxazepane-2-carboxamide]
Days post Ad-IFNα5 injection, INS1007 0.1, 1, 10 mg/kg PO twice daily, FIG. 5
  pseudo-survival (urine total protein less than 750 mg/dL): increased “pseudo-survival” (and decreased total protein concentration) in a dose dependent manner
Left kidney histopathology at 8 weeks, vs vehicle, FIG. 6
  renal pathology score sum (glomerulonephritis, tubular protein, nephropathy): decreased renal pathology as compared to vehicle control
Plasma BUN (mg/dL), 6 weeks after model induction, INS1007 0.1, 1, 10 mg/kg PO twice daily, FIG. 4
  blood urea nitrogen (BUN) levels: decreased in animals treated with INS1007 in a dose dependent matter
Right kidney FACS, CD45+, CD3+, week 8, FIG. 13
  T-lymphocyte percent of total kidney cells: significantly decreased
Right kidney FACS, CD45+, CD11b+, F4/80+, Ly6C+, Ly6G−, week 8, FIG. 11
  Ly6C+ macrophage percent of total kidney cells: significantly decreased
Right kidney FACS, CD45+, CD11b+, Ly6G−, Ly6C+, week 8, FIG. 10
  Ly6C+ monocyte percent of total kidney cells: significantly decreased
Right kidney FACS, CD45+, CD11b+, week 8, FIG. 8
  myelocyte percent of total kidney cells: significantly decreased
Urine total protein by chemstick (mg/dL), week 8, INS1007 0.1, 1, 10 mg/kg PO twice daily from week 2, FIG. 3
  urinary protein concentration: decrease in urinary protein concentration (mg/dL) in a dose dependent manner
